Results published in ChEMBL document CHEMBL4602725 (J Med Chem, 2020).

What was measured:
[1] = target: T1, Histone deacetylase 1 (Homo sapiens, UniProt Q13547); experiment: Inhibition of human recombinant HDAC1 pre-incubated for 30 mins before Ac-Leu- Gly-Lys(Ac)-AMC substrate addition and measured after 90 mins by fluorescence based assay
[2] = test system: NFF; experiment: Cytotoxicity against human NFF cells assessed as reduction in cell viability incubated for 72 hrs by MTT assay
[3] = target: Histone deacetylase 2 (Homo sapiens, UniProt Q92769); experiment: Inhibition of human recombinant HDAC2 pre-incubated for 30 mins before Ac-Leu- Gly-Lys(Ac)-AMC substrate addition and measured after 90 mins by fluorescence based assay
Histone deacetylase 2, sequence (Q92769 whole entry): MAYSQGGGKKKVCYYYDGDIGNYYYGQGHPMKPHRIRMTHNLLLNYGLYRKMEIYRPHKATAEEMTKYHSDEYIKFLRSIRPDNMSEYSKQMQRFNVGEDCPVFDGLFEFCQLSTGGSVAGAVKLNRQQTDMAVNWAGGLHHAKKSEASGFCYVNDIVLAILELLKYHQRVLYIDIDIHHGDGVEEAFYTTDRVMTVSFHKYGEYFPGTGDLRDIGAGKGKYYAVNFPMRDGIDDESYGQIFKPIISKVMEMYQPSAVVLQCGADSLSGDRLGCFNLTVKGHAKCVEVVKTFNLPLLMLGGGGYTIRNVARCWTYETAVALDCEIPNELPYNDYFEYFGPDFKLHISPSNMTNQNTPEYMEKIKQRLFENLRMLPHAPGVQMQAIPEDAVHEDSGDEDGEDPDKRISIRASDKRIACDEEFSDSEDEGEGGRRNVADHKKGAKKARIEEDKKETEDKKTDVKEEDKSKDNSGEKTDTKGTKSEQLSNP

[4] = test system: HeLa; experiment: Cytotoxicity against human HeLa cells assessed as reduction in cell viability incubated for 72 hrs by MTT assay
[5] = test system: MM96L; experiment: Cytotoxicity against human MM96L cells assessed as reduction in cell viability incubated for 72 hrs by MTT assay
[6] = test system: MDA-MB-231; experiment: Cytotoxicity against human MDA-MB-231 cells assessed as increase in intracellular caspase 3/7 release incubated for 72 hrs by Caspase-Glo 3/7 assay; conditions: MDA-MB-231, 72 h
[7] = test system: MM96L; experiment: Cytotoxicity against human MM96L cells assessed as increase in intracellular caspase 3/7 release incubated for 72 hrs by Caspase-Glo 3/7 assay
[8] = target: T2, Histone deacetylase 8 (Homo sapiens, UniProt Q9BY41); experiment: Inhibition of human recombinant HDAC8 pre-incubated for 30 mins before Ac-Leu- Gly-Lys(Ac)-AMC substrate addition and measured after 90 mins by fluorescence based assay
T2 sequence (Q9BY41 whole entry): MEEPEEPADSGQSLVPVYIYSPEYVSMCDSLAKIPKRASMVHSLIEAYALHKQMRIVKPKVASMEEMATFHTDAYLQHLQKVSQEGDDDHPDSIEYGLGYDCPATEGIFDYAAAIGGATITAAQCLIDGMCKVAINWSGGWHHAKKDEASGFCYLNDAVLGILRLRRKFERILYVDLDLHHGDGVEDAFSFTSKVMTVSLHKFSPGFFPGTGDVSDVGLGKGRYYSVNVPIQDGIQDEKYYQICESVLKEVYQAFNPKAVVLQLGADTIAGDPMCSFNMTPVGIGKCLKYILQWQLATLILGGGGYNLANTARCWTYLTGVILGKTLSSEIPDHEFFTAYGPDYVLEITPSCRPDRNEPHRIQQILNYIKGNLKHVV

[9] = test system: MDA-MB-231; experiment: Cytotoxicity against human MDA-MB-231 cells assessed as reduction in cell viability incubated for 72 hrs by MTT assay; conditions: MDA-MB-231, 72 h
[10] = target: Histone deacetylase 3 (Homo sapiens, UniProt O15379); experiment: Inhibition of human recombinant HDAC3 pre-incubated for 30 mins before Ac-Leu- Gly-Lys(Ac)-AMC substrate addition and measured after 90 mins by fluorescence based assay
Histone deacetylase 3, sequence (O15379 whole entry): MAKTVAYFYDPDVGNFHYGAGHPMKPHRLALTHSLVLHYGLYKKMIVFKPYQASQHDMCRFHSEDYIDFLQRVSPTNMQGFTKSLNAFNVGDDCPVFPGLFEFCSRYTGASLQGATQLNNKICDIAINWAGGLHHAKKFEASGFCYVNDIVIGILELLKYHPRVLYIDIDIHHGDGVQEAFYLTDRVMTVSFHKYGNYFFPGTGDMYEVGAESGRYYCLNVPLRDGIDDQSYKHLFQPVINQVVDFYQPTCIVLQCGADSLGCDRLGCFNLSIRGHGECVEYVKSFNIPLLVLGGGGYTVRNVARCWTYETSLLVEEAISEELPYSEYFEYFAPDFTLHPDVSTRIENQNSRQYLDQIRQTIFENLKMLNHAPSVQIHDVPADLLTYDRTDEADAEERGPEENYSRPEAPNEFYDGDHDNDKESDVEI

[11] = test system: A549; experiment: Cytotoxicity against human A549 cells assessed as reduction in cell viability incubated for 72 hrs by MTT assay; conditions: A549, 72 h
[12] = test system: NFF; experiment: Cytotoxicity against human NFF cells assessed as increase in intracellular caspase 3/7 release incubated for 72 hrs by Caspase-Glo 3/7 assay
[13] = test system: HT-29; experiment: Cytotoxicity against human HT-29 cells assessed as increase in intracellular caspase 3/7 release incubated for 72 hrs by Caspase-Glo 3/7 assay; conditions: HT-29, 72 h
[14] = test system: HeLa; experiment: Cytotoxicity against human HeLa cells assessed as increase in intracellular caspase 3/7 release incubated for 72 hrs by Caspase-Glo 3/7 assay
[15] = target: T1, Histone deacetylase 1; experiment: Inhibition of HDAC1 in human MM96L cells assessed as activation of histone H4 acetylation at Lys5, Lys8, Lys12 and Lys16 residues by Western blot analysis; assay type: cell-based
[16] = test system: A549; experiment: Cytotoxicity against human A549 cells assessed as increase in intracellular caspase 3/7 release incubated for 72 hrs by Caspase-Glo 3/7 assay; conditions: A549, 72 h
[17] = test system: HT-29; experiment: Cytotoxicity against human HT-29 cells assessed as reduction in cell viability incubated for 72 hrs by MTT assay; conditions: HT-29, 72 h

T1 sequence (Q13547 whole entry): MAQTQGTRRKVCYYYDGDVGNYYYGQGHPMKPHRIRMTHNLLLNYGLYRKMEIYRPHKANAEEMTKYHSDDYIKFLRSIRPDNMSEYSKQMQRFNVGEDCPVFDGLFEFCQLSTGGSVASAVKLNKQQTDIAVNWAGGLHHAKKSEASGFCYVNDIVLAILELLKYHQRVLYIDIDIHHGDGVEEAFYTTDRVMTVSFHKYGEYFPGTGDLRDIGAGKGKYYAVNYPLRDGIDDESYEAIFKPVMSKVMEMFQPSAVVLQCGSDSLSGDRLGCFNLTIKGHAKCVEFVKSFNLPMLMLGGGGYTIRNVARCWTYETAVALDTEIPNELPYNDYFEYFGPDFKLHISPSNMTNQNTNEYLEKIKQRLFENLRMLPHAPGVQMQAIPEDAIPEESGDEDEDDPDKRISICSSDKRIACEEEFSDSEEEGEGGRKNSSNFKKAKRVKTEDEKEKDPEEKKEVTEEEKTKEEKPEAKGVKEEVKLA

| SMILES | IC50 [1] | also measured |
| --- | --- | --- |
| O=C(NO)c1ccc(NC(=O)C2(c3ccccc3)CCCC2)nc1 | 132 nM | – |
| COc1cccc(-c2nc(C3(C(=O)Nc4ccc(C(=O)NO)cc4)CCCC3)cs2)c1 | 15 nM | – |
| O=C(NO)c1ccc(NC(=O)C2(c3ccc4ccccc4c3)CCCCC2)cc1 | 43 nM | – |
| CCCC(CCC)C(=O)Nc1ccc(C(=O)NO)cc1 | 738 nM | – |
| O=C(NO)c1ccc(NC(=O)C2(c3ccc(Br)cc3)CCCCC2)cc1 | 63 nM | – |
| O=C(NO)c1ccc(NC(=O)C2(c3ccc4ccccc4c3)CCOCC2)cc1 | – | IC50 [2]: 400 nM; IC50 [3]: 8 nM; IC50 [4]: 30 nM; IC50 [5]: 20 nM; EC50 [6]: 300 nM; EC50 [7]: 60 nM; IC50 [8]: 44 nM; IC50 [9]: 100 nM; IC50 [10]: 2 nM; IC50 [11]: 100 nM; EC50 [12]: 4300 nM; EC50 [13]: 200 nM; EC50 [14]: 700 nM; inhibition [15]: Dose-dependent effect; EC50 [16]: 2600 nM; IC50 [17]: 40 nM |
| O=C(NO)c1ccc(NC(=O)C2(c3ccc(F)cc3)CCCC2)cc1 | 41 nM | – |
| O=C(NO)c1ccc(NC(=O)C2(c3ccccc3)CCNCC2)cc1 | 12 nM | – |
| O=C(NO)c1ccc(NC(=O)C2(c3ccc4c(c3)OCO4)CCCCC2)cc1 | 42 nM | – |
| CC(C)C(C(=O)Nc1ccc(C(=O)NO)c(Cl)c1)c1ccccc1 (racemic) | 8680 nM | – |
| O=C(NO)c1ccc(NC(=O)C2(c3ccccc3)CCCC2)cc1 | 28 nM | – |
| CC(C)C(NC(=O)c1ccc(C(=O)NO)cc1)c1ccccc1 (racemic) | 2120 nM | – |
| CC(C)(C(=O)Nc1ccc(C(=O)NO)cc1)c1ccccc1 | 218 nM | – |
| O=C(NO)c1ccc(NC(=O)C2(c3ccc(C(F)(F)F)c(F)c3)CCCC2)cc1 | 227 nM | – |
| O=C(NO)c1ccc(NC(=O)C2(c3csc(-c4ccccc4Oc4ccccc4)n3)CCCC2)cc1 | 431 nM | – |
| CC(C)C(C(=O)Nc1ccc(C(=O)Nc2ccccc2N)cc1)c1ccccc1 (racemic) | 231 nM | – |
| O=C(NO)c1ccc(NC(=O)C2(c3ccccc3)CCOCC2)cc1 | 28 nM | – |
| O=C(NO)c1ccc(NC(=O)C2(c3ccccc3)CC2)cc1 | 93 nM | – |

| SMILES | IC50 [1] | also measured |
| --- | --- | --- |
| O=C(NO)c1ccc(NC(=O)C(c2ccccc2)c2ccccc2)cc1 | 250 nM | – |
| O=C(NO)c1ccc(NC(=O)C2(c3c[nH]c4ccccc34)CCCC2)cc1 | 23 nM | – |
| O=C(NO)c1ccc(NC(=O)C2(c3csc(-c4cccc(Oc5ccccc5)c4)n3)CCCC2)cc1 | > 10000 nM | – |
| COc1ccc(C2(C(=O)Nc3ccc(C(=O)NO)cc3)CCCCC2)cc1OC | 29 nM | – |
| CC(C)C(C(=O)Nc1ccc(C(=O)NO)cc1Cl)c1ccccc1 (racemic) | 1060 nM | – |
| O=C(NO)c1ccc(NC(=O)C2(c3ccccc3)CCCCC2)cc1 | 15 nM | – |
| Nc1ccc(C2(C(=O)Nc3ccc(C(=O)NO)cc3)CCOCC2)cc1 | 22 nM | – |
| CC(C)C(C(=O)Nc1ccc(C(=O)NO)cn1)c1ccccc1 (stereo unspecified) | 22 nM | – |
| CCC(CC)(C(=O)Nc1ccc(C(=O)NO)cc1)c1ccccc1 | 430 nM | – |
| C/C(=N\O)c1sccc1-c1ccc(C2(C(=O)Nc3ccc(C(=O)NO)cc3)CCCC2)cc1 | 43 nM | – |
| O=C(NO)c1ccc(NC(=O)C2(c3ccc(-c4ccc(OCc5ccccc5)nc4)cc3)CCCC2)cc1 | 240 nM | – |
| CC(C)C(C(=O)Nc1ccc(C(=O)NO)cc1)c1ccccc1 (racemic) | – | IC50 [2]: 500 nM; IC50 [4]: 700 nM; IC50 [5]: 300 nM; EC50 [6]: 2400 nM; EC50 [7]: 900 nM; IC50 [9]: 1500 nM; IC50 [11]: 1500 nM; EC50 [12]: 24300 nM; EC50 [13]: 1700 nM; EC50 [14]: 8100 nM; EC50 [16]: 15600 nM; IC50 [17]: 600 nM |
| O=C(NO)c1ccc(NC(=O)C2(c3ccc(-c4ccccc4)cc3)CCCC2)cc1 | 16 nM | – |
| O=C(NO)c1ccc(NC(=O)C2(c3ccc(-c4ccccc4)c(F)c3)CCCC2)cc1 | 42 nM | – |
| COc1ccc(C2(C(=O)Nc3ccc(C(=O)NO)cc3)CCCCC2)cc1Br | 31 nM | – |
| CC(C)C(C(=O)N(C)c1ccc(C(=O)NO)cc1)c1ccccc1 (racemic) | 439 nM | – |
| O=C(Cc1ccccc1)Nc1ccc(C(=O)NO)cc1 | 75 nM | – |

More lines, in order of falling IC50 [1], values ahead:

| IC50 [1] | SMILES | also measured |
| --- | --- | --- |
| 12 nM | O=C(NO)c1ccc(NC(=O)C2(c3csc(-c4ccccc4)n3)CCCC2)cc1 | – |
| 12 nM | O=C(NO)c1ccc(NC(=O)C2(c3ccc(Cl)cc3)CCCC2)cc1 | – |
| 11 nM | O=C(NO)c1ccc(NC(=O)C2(c3ccc4ccccc4c3)CCCC2)cc1 | – |
| 10 nM | CC(=O)Nc1ccc(N)cc1-c1ccc(C2(C(=O)Nc3ccc(C(=O)NO)cc3)CCCCC2)cc1 | – |
| 10 nM | COc1ccc(C2(C(=O)Nc3ccc(C(=O)NO)cc3)CCCCC2)cc1-c1cccc(N)c1 | – |
| 10 nM | O=C(NO)c1ccc(NC(=O)C2(c3c[nH]c(-c4ccc(Br)cc4)n3)CCCC2)cc1 | – |
| 9 nM | O=C(NO)c1ccc(NC(=O)C2(c3ccc([N+](=O)[O-])cc3)CCOCC2)cc1 | – |
| 9 nM | COc1ccc(C2(C(=O)Nc3ccc(C(=O)NO)cc3)CCCCC2)cc1-c1ccccc1NC(C)=O | – |
| 8 nM | O=C(NO)c1ccc(NC(=O)C2(c3ccc(-c4ccc5[nH]ccc5c4)cc3)CCCC2)cc1 | – |
| 8 nM | Cc1n[nH]c(C)c1-c1ccc(C2(C(=O)Nc3ccc(C(=O)NO)cc3)CCCC2)cc1 | – |
| 7 nM | O=C(NO)c1ccc(NC(=O)C2(c3ccc(Br)cc3)CCCC2)cc1 | – |
| 6 nM | O=C(NO)c1ccc(NC(=O)C2(c3c[nH]c(-c4ccc([N+](=O)[O-])cc4)n3)CCCC2)cc1 | – |
| 6 nM | O=C(NO)c1ccc(NC(=O)C2(c3ccc(Cl)c(Cl)c3)CCOCC2)cc1 | – |
| 5 nM | Cc1[nH]ncc1-c1ccc(C2(C(=O)Nc3ccc(C(=O)NO)cc3)CCCC2)cc1 | – |
| 5 nM | O=C(NO)c1ccc(NC(=O)C2(c3ccc(-c4cccnc4)cc3)CCCC2)cc1 | – |
| 5 nM | CC(=O)Nc1cccc(-c2ccc(C3(C(=O)Nc4ccc(C(=O)NO)cc4)CCCC3)cc2)c1 | – |
| 4 nM | Nc1cccc(-c2ccc(C3(C(=O)Nc4ccc(C(=O)NO)cc4)CCCC3)cc2)c1 | – |
| 4 nM | O=C(NO)c1ccc(NC(=O)C2(c3ccc(-c4cc[nH]n4)cc3)CCCC2)cc1 | – |
| 3 nM | O=C(NO)c1ccc(NC(=O)C2(c3ccc(-c4cn[nH]c4)cc3)CCCC2)cc1 | – |
| 3 nM | O=C(NO)c1ccc(NC(=O)C2(c3c[nH]c(-c4ccccc4)n3)CCCC2)cc1 | IC50 [3]: 21 nM; IC50 [8]: 41 nM; IC50 [10]: 10 nM |
| 3 nM | COc1ccc(C2(C(=O)Nc3ccc(C(=O)NO)cc3)CCCCC2)cc1-c1cn[nH]c1 | – |
| 2 nM | O=C(NO)c1ccc(NC(=O)C2(c3ccc(-c4cn[nH]c4)cc3)CCOCC2)cc1 | – |
| 2 nM | O=C(NO)c1ccc(NC(=O)C2(c3ccc(Br)cc3)CCOCC2)cc1 | IC50 [3]: 17 nM; IC50 [8]: 59 nM; IC50 [10]: 4 nM; EC50 [15]: 600 nM; inhibition [15]: Dose-dependent effect |
| 2 nM | O=C(O)c1cccc(-c2ccc(C3(C(=O)Nc4ccc(C(=O)NO)cc4)CCCC3)cc2)c1 | IC50 [3]: 13 nM; IC50 [4]: > 100000 nM; IC50 [5]: > 100000 nM; EC50 [6]: > 100000 nM; EC50 [7]: > 100000 nM; IC50 [8]: 118 nM; IC50 [9]: > 100000 nM; IC50 [10]: 7 nM; IC50 [11]: > 100000 nM; EC50 [13]: > 100000 nM; EC50 [14]: > 100000 nM; EC50 [16]: > 100000 nM; IC50 [17]: > 100000 nM |
| 2 nM | O=C(NO)c1ccc(NC(=O)C2(c3ccc(-c4cn[nH]c4)cc3)CCCCC2)cc1 | IC50 [3]: 10 nM; IC50 [8]: 69 nM; IC50 [10]: 2 nM |
| 0.94 nM | CC(=O)Nc1ccccc1-c1ccc(C2(C(=O)Nc3ccc(C(=O)NO)cc3)CCCC2)cc1 | – |
